Experimental data taken from ChEMBL document CHEMBL6127080, “Design, synthesis and biological evaluation of novel diphenylamine analogues as NLRP3 inflammasome inhibitors” (Bioorg Med Chem, 2024).

Assays:
[1] = molecular target: NACHT, LRR and PYD domains-containing protein 3 (Mus musculus, UniProt Q8R4B8); assay: Inhibition of NLRP3 inflammasome activation in mouse […] cells assessed as reduction in LPS/ATP-induced IL-1 beta release pretreated with LPS for 4.5 hrs followed by compound addition for 30 mins prior to ATP addition and measured after 30 mins by ELISA; type: cell-based, J774.A1
[2] = molecular target: NACHT, LRR and PYD domains-containing protein 3 (Mus musculus) (UniProt Q8R4B8); assay: Inhibition of NLRP3 inflammasome activation in mouse […] cells assessed as reduction in LPS/ATP-induced IL-1 beta release at 1 uM pretreated with LPS for 4.5 hrs followed by compound addition for 30 mins prior to ATP addition and measured after 30 mins by ELISA relative to control; type: cell-based; settings: J774.A1, time 5.5 hrs
[3] = molecular target: NACHT, LRR and PYD domains-containing protein 3 (Mus musculus) (UniProt Q8R4B8); assay: Inhibition of NLRP3 inflammasome activation in mouse […] cells assessed as reduction in LPS/ATP-induced IL-1 beta release at 10 uM pretreated with LPS for 4.5 hrs followed by compound addition for 30 mins prior to ATP addition and measured after 30 mins by ELISA relative to control; type: cell-based; settings: J774.A1, time 5.5 hrs
J774.A1 = assay: Cytotoxicity against mouse J774.A1 cells at 50 uM; type: toxicity, cell-based; settings: j774.a1, 5.5 h
[4] = Stability in rat liver homogenate incubated measured upto 48 hrs by HPLC method; type: ADME, tissue-based; settings: tissue homogenate
[5] = Cytotoxicity against mouse J774.A1 cells; type: toxicity, cell-based
[6] = Stability in rat plasma incubated measured upto 48 hrs by HPLC method; type: ADME, cell-free

NACHT, LRR and PYD domains-containing protein 3, sequence (Q8R4B8 whole entry, the tested form may be a part): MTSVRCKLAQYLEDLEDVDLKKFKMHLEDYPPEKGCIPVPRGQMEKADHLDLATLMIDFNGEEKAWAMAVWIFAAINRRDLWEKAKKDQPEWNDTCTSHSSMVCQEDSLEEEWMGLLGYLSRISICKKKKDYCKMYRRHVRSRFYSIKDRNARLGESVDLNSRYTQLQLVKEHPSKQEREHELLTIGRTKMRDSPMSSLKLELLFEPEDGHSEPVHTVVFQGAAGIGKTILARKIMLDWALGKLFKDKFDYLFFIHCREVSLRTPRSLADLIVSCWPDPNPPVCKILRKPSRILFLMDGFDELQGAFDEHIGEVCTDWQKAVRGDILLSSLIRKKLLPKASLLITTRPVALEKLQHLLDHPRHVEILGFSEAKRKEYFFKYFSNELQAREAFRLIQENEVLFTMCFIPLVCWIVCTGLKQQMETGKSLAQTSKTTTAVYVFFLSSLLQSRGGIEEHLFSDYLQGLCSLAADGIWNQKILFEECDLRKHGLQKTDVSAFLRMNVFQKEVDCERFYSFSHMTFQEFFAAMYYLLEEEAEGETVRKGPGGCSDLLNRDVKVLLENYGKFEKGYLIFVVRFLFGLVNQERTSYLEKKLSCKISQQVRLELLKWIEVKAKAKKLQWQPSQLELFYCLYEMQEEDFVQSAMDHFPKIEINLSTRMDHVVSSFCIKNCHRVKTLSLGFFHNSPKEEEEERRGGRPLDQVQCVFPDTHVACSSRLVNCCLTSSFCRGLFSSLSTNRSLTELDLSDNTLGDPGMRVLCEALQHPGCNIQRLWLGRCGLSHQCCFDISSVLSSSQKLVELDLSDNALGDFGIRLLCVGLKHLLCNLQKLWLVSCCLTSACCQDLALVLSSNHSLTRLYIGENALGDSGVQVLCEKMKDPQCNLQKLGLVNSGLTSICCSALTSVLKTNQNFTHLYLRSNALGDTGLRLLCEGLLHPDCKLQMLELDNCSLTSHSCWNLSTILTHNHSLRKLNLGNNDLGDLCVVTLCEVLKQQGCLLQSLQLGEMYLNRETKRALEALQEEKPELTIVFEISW
NACHT, LRR and PYD domains-containing protein 3 (Mus musculus), sequence (Q8R4B8 whole entry, the tested form may be a part): as above

| SMILES | inhibition [2] | inhibition [3] | other results |
| --- | --- | --- | --- |
| CCCCCC(=O)Nc1ccc(-c2ccccc2N(Cc2cc(Cl)ccc2OCCOC)C(=O)Cc2ccsc2)cc1 | 67.5% | 81.8% | IC50 [1]: 590 nM |
| COCCOc1ccc(Cl)cc1CN(C(=O)Cc1ccsc1)c1ccccc1-c1ccc(NC(=O)Cc2ccccc2)cc1 | 44.5% | 84.3% |  |
| COCCOc1ccc(Cl)cc1CN(C(=O)Cc1ccsc1)c1ccccc1-c1ccc(NC(=O)CBr)cc1 | 73% | 90.5% | IC50 [1]: 310 nM; Activity (J774.A1): > 97% |
| CCCCCC(=O)Nc1ccc(-c2ccccc2N(Cc2cc(Cl)ccc2OCCOC)C(=O)c2ccc(F)cc2)cc1 | 7.12% | 45.4% |  |
| CCC(=O)Nc1ccc(-c2ccccc2N(Cc2cc(Cl)ccc2OCCOC)C(=O)c2c(F)c(F)c(F)c(F)c2F)cc1 | 39.7% | 23.6% |  |
| CCC(=O)Nc1ccc(-c2ccccc2N(Cc2cc(F)ccc2OCC(C)(F)F)C(=O)Cc2ccsc2)cc1 | 27.8% | 74.8% |  |
| CCS(=O)(=O)Nc1ccc(-c2ccccc2N(Cc2cc(Cl)ccc2OCCOC)C(=O)Cc2ccsc2)cc1 | 27.5% | 42.5% |  |
| CCCC(CCC)C(=O)Nc1ccc(-c2ccccc2N(Cc2cc(Cl)ccc2OCCOC)C(=O)Cc2ccsc2)cc1 | 28.6% | 58.1% |  |
| CCC(=O)Nc1ccc(-c2ccccc2N(Cc2ccc(F)cc2)C(=O)c2ccc(F)cc2)cc1 | 40.5% | 39.6% |  |
| CCCC(=O)Nc1ccc(-c2ccccc2N(Cc2cc(Cl)ccc2OCCOC)C(=O)Cc2ccsc2)cc1 | 53.9% | 68.2% | IC50 [1]: 1030 nM |
| CCC(=O)Nc1ccc(-c2ccccc2N(Cc2cc(Cl)ccc2OCCOC)C(=O)Cc2ccsc2)cc1 | 72.3% | 92.5% | IC50 [1]: 850 nM |
| COCCOc1ccc(Cl)cc1CN(C(=O)Cc1ccsc1)c1ccccc1-c1ccc(NC(C)=O)cc1 | 1.56% | 33.9% |  |
| COCCOc1ccc(Cl)cc1CN(C(=O)Cc1ccsc1)c1ccccc1-c1ccc(NC(=O)C(C)C)cc1 | 11.1% | 85.4% |  |
| CCNC(=O)Nc1ccc(-c2ccccc2N(Cc2cc(Cl)ccc2OCCOC)C(=O)Cc2ccsc2)cc1 | 56.9% | 84.4% |  |
| COCCOc1ccc(Cl)cc1CN(C(=O)Cc1ccsc1)c1ccccc1-c1ccc(NC(=O)[C@@H]2CCC(=O)N2)cc1 | 54.1% | 84.5% | IC50 [1]: 860 nM |
| CC(C)(O)c1coc(S(=O)(=O)NC(=O)Nc2c3c(cc4c2CCC4)CCC3)c1 |  |  | IC50 [1]: 15 nM |
| CCC(=O)Nc1ccc(-c2ccccc2N(Cc2cc(Cl)ccc2OCCOC)C(=O)c2cc(F)c(F)c(F)c2)cc1 | 52.5% | 77.4% |  |

| SMILES | inhibition [2] | inhibition [3] | other results |
| --- | --- | --- | --- |
| C#CCCCC(=O)Nc1ccc(-c2ccccc2N(Cc2cc(Cl)ccc2OCCOC)C(=O)Cc2ccsc2)cc1 | -0.88% | 49.6% |  |
| CCC(=O)Nc1ccc(-c2ccccc2N(Cc2cc(F)ccc2OCCOC)C(=O)Cc2ccsc2)cc1 | 42.7% | 83.8% |  |
| CCC(=O)Nc1ccc(-c2ccccc2N(Cc2cc(Cl)ccc2OCCOC)C(=O)Cc2ccc(F)cc2)cc1 | 76.7% | 93.5% | IC50 [1]: 650 nM |
| CCC(=O)Nc1ccc(-c2ccccc2N(Cc2cc(Cl)ccc2OCCOC)C(=O)c2ccc(F)cc2)cc1 |  |  | Stability [4]: Stable; IC50 [5]: 50000 nM; IC50 [1]: 340 nM; Stability [6]: Stable |
| COCCOc1ccc(Cl)cc1CN(C(=O)Cc1ccsc1)c1ccccc1-c1ccc(NC(=O)C2CCCCC2)cc1 | -2.37% | 39.5% |  |
| C=CC(=O)Nc1ccc(-c2ccccc2N(Cc2cc(Cl)ccc2OCCOC)C(=O)Cc2ccsc2)cc1 | 24.5% | 72.1% |  |
| CCC(=O)Nc1ccc(-c2ccccc2N(Cc2ccc(C(F)(F)F)cc2)C(=O)c2ccc(F)cc2)cc1 | 49.7% | 82.1% |  |
| CCCS(=O)(=O)Nc1ccc(-c2ccccc2N(Cc2cc(Cl)ccc2OCCOC)C(=O)c2ccc(F)cc2)cc1 | 58.9% | 67.6% |  |
| CCS(=O)(=O)Nc1ccc(-c2ccccc2N(Cc2cc(Cl)ccc2OCCOC)C(=O)c2ccc(F)cc2)cc1 | 55.4% | 68.2% |  |
| CCNC(=S)Nc1ccc(-c2ccccc2N(Cc2cc(Cl)ccc2OCCOC)C(=O)Cc2ccsc2)cc1 | 29.2% | 78.4% |  |
| CCCS(=O)(=O)Nc1ccc(-c2ccccc2N(Cc2cc(Cl)ccc2OCCOC)C(=O)Cc2ccsc2)cc1 | 31.4% | 61.1% |  |
| CCC(=O)Nc1ccc(-c2ccccc2N(Cc2cc(Cl)ccc2OCCOC)C(=O)c2ccc(F)c(F)c2)cc1 | 36.1% | 27.7% |  |
| CCC(=O)Nc1ccc(-c2ccccc2N(Cc2cc(Cl)ccc2OCC(C)(F)F)C(=O)Cc2ccsc2)cc1 | 70.1% | 89.9% | IC50 [1]: 550 nM |
| COCCOc1ccc(Cl)cc1CN(C(=O)Cc1ccsc1)c1ccccc1-c1ccc(NC(=O)C2CC2)cc1 | 27.8% | 63.9% |  |
| COCCOc1ccc(Cl)cc1CN(C(=O)Cc1ccsc1)c1ccccc1-c1ccc(NC(=O)OCc2ccccc2)cc1 | 10.6% | 54.4% |  |
| CCCCS(=O)(=O)Nc1ccc(-c2ccccc2N(Cc2cc(Cl)ccc2OCCOC)C(=O)Cc2ccsc2)cc1 | 51.5% | 73.7% |  |
| COCCOc1ccc(Cl)cc1CN(C(=O)Cc1ccsc1)c1ccccc1-c1ccc(NC(=O)/C=C/c2ccccc2)cc1 | 11.9% | 36.7% |  |
